This is an account of results in patent publication US20130310374A1, “Substituted Imidazoquinoline Derivatives” (PIRAMAL ENTERPRISES LIMITED`, priority 2010, published 2013).

Assay [1] relates to human PANC-1 xenograft tumors. Put plainly: Pancreatic cancer xenograft model (tumor growth inhibition in vivo). More on the design: species or system mouse. The conditions noted are these: SCID mice, 3 mpk once daily p.o., 14 days; FIG. 3B. Here is the method: Animals: Severe combined immunodeficient (SCID) mice (Male and Female) 6 to 8 weeks old, were used. Animals were housed in suitable cages under specified pathogen-free conditions in rooms maintained at 23° C. and 50% humidity, with a 12-hour light/12-hour dark cycle. The mice were quarantined during the acclimatization period of at least a week.
Pancreatic Cancer xenograft model: The human pancreatic carcinoma cells, (PANC-1) (ATCC) were grown in Eagle's Minimum Essential Medium (SAFC, US) supplemented with 10% (v/v) fetal bovine serum. The cells were incubated at 37° C. in a humidified atmosphere containing 5% CO2. […]
Tumor-bearing mice were randomized in two groups when the mean tumor weight was ˜100 mg. […] Twice a week, each xenograft was measured in two dimensions (a=length; b=width) with a caliper. Tumor volume (V) was determined by the following equation:
Tumor volumes were converted into tumor weights assuming a tumor density of 1 mm^3=1 mg. Tumor growth inhibition (TGI) for each group was calculated according to the following formula: […]
Wherein, T and T0 are the mean tumor volumes on a specific experimental day and on day 1 of treatment, respectively, for the experimental groups. […] Animals in each group were observed every day for signs of health deterioration and animal weight was recorded daily. […]

The test system of assay [2] is Human umbilical vein endothelial cells (HUVECs). In words: VEGF induced tube formation assay. Format: cell-based. The conditions noted are these: HUVECs on Matrigel, compound 75 nM, 18 hours; FIG. 2. Here is the method: Protocol for Tube Formation Assay
Cell Culture: Human umbilical vein endothelial cells (HUVECs) (ATCC) used in passages 2-7. The cells were grown in endothelial medium (Promocell, Germany) supplemented with 20% fetal bovine serum (FBS), 100 units/mL penicillin, 100 μg/mL streptomycin, 3 ng/mL basic fibroblast growth factor, and 5 units/mL heparin at 37° C. under a humidified 95% (v/v) mixture of air and CO2.
Tube Formation Assay: 250 μl of growth factor-reduced Matrigel (BD Biosciences) was pipetted into a 24 well tissue culture plate and polymerized for 30 minutes at 37° C. HUVECs incubated in endothelial media containing 1% FBS for 6 hours were harvested after trypsin treatment and suspended in endothelial media containing 1% FBS. Compounds of present invention (75 nM) were added to the cells for 30 minutes at RT before seeding and plated onto the layer of Matrigel at a density of 2×10^4 cells/well, and followed by the addition of 2 mL of 40 ng/mL VEGF. After 18 hours, the cultures were photographed.
Results: When HUVECs were placed on growth factor-reduced Matrigel in the presence of VEGF, VEGF led to the formation of elongated and robust tube-like structures, which were organized by much larger number of cells compared with the control.

The target of the next assay is T1, ALK1 (ACVRL1) (Homo sapiens, UniProt P37023).
T1 construct: recombinant human, catalytic domain of ALK1 (ACVRL1) or ALK2 (ACVR1) kinase GST fusion proteins; GST; purchased Invitrogen, USA
Put plainly: ALK1 inhibition assay (TR-FRET). It is filed as biochemical. Particulars: 20 μM ATP, read-out: IC50 for ALK-1. Here is the method:
Protocol for ALK1 and ALK2 Inhibition Assay
The in vitro kinase assays using recombinant human, catalytic domain of ALK1 (ACVRL1) or ALK2 (ACVR1) kinase GST fusion proteins (Invitrogen, USA) were conducted using a time-resolved fluorescence (TR-FRET) format. Kinase reactions were carried out in a 384-well plate format in a final volume of 20 μl. The standard enzyme reaction buffer consisted of 50 mM Tris HCL (pH: 7.4), 1 mM EGTA, 10 mM MgCl2, 2 mM DTT, 0.01% Tween-20, 20 nM of ALK1/ALK2 kinase enzyme (Invitrogen, USA), 50 nM of peptide substrate (DNA Topoisomerase 2 alpha (Thr 1342)U1 peptide, Perkin Elmer, USA) and 20 μM of ATP. Various concentrations of compound of Example 3a in DMSO (final concentration 2%), was added to give a final concentration of the compound ranging from 20 μM to 20 pM. [20 nM of enzyme and compound in various concentrations were pre incubated for 10 minutes at 23° C. followed by the addition of 50 nM of the peptide substrate]. Reaction was initiated with the addition of 20 μM of ATP. After incubation for 1 hour at 23° C., kinase reaction was stopped with the addition of 5 μl EDTA (final concentration of 10 mM in 20 μl). […] The IC50 values for compound of Example 3a were determined by a four-parameter sigmoidal curve fit (Sigma plot or Graph pad).
On the technique in general: Time-resolved FRET reads energy transfer from a long-lived donor to a nearby acceptor.

T1 sequence (P37023 202-492 limits assumed): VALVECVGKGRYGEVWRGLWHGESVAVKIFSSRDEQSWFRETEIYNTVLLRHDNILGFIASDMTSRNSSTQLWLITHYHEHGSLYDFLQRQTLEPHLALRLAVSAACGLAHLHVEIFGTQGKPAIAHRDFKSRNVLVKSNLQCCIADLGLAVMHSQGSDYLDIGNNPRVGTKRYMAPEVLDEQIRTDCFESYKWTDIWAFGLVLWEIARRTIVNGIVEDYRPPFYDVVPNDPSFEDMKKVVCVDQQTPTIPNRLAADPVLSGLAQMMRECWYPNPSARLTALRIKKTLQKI

By IC50 is commonly meant the concentration at which inhibition is half-maximal. In the case of `CS(=O)(=O)O.Cn1c(=O)n(-c2ccc(C(C)(C)C#N)nc2)c2c3cc(-c4cnc(N)c(C(F)(F)F)c4)ccc3ncc21` [Example 3a, 8-(6-Amino-5-(trifluoromethyl)pyridin-3-yl)-1-(6-(2-cyanopropan-2-yl)pyridin-3-yl)-3-methyl-2-oxo-2,3-dihydro-1H-imidazo[4,5-c]quinolin-5-ium methanesulfonate], the “Growth of pancreatic tumors, PANC-1 xenograft” value in assay [1] was “effectively inhibited the growth of pancreatic tumors”. In assay [2], the “VEGF (40 ng/mL) induced tube formation” value is “effectively abrogated the width and the length of endothelial tubes induced by VEGF”. Moreover, the half-maximal inhibitory concentration (IC50) on ALK1 (ACVRL1) turned out to be 42 nM.
